Measured values as given in patent US5434256A, “Diamine platinum complexes as antitumor agents” (priority 1994, dated 1995).

Key:
L1210/DACH cells = test: MTT cytotoxicity, tetraplatin-resistant L1210/DACH (Example 5, Table 10); format: cell-based, murine; conditions: 72 hr (3 days) continuous exposure
L1210/DDP cells [1] = test: In vivo antitumor activity, cisplatin-resistant L1210/DDP (Example 6, Table 11); design: species or system male BDF1 mice; conditions: L1210/DDP i.p.; drug i.p. days 1, 5, 9; median survival; optimal dose (mg/kg/inj): 12: 25; Cisplatin: 5
Description: (§1) Cisplatin-sensitive L1210/0 or cisplatin-resistant L1210/DDP cells (1×10^5 cells/mouse) were injected intraperitoneally in male BDF1 mice on day 0, and the drug, in an aqueous medium, administered intraperitoneally at dose levels ranging from 1.56 to 200 mg/kg on days 1, 5 and 9. The median life spans of control (C) and treated (T) animals were determined, and the percent T/C at the optimal dose calculated as an indicator of antitumor efficacy. The complexes were also evaluated against the M5076 reticulosarcoma. […]. The tumor volumes were measured periodically and efficacy at the optimal dose reported as tumor growth delay (TGD), which is defined as the time difference in days for the tumor in control and treated mice to reach a specified volume.
(§2) BDF1 mice inoculated i.p. with 10^5 L1210 Leukemia cells on day 0 wer
(§3) administered the drug on days 1, 5, and 9. BDF1 mice inoculated s.c. with
(§4) 10^7 M5076 cells on day 0 received the drug on days 5, 9, 13, and 17.
(§5) % T/C = [(median survival time of treated)/(median survival time of
(§6) control)] × 100. TGD = tumor growth delay.

L1210/0 cells [2] = test: MTT cytotoxicity, L1210/0 (Example 5, Table 10); format: cell-based, murine; conditions: 72 hr (3 days) continuous exposure
L1210/0 cells [3] = test: In vivo antitumor activity, L1210/0 (Example 6, Table 11); design: species or system male BDF1 mice; conditions: for % T/C at optimal dose: L1210/0 i.p., drug i.p. days 1, 5, 9, median survival, optimal dose (mg/kg/inj): 12, 13, 14: 25, 15: 12.5, Cisplatin: 5; for Optimal Dose: i.p., dose levels 1.56 to 200 mg/kg tested, L1210/0, L1210/DDP and M5076
Description: as §1, §2
administered the drug on days 1, 5, and 9. […]

M5076 reticulosarcoma = test: In vivo antitumor activity, M5076 reticulosarcoma (Example 6, Table 11); design: species or system male BDF1 mice; conditions: M5076 s.c.; drug i.p. days 5, 9, 13, 17; optimal dose (mg/kg/inj): 12: 25; Cisplatin: 5
Description: as §1, §2, §3, §4, §5, §6

L1210/DDP cells [4] = test: MTT cytotoxicity, cisplatin-resistant L1210/DDP (Example 5, Table 10); format: cell-based, murine; conditions: 72 hr (3 days) continuous exposure
Murine Leukemia 1210/DDP = test: In vivo antitumor activity against murine leukemia L1210/DDP (Example 3, Table 7); design: species or system BDF1 mice; conditions: for MTD (Maximum Tolerated Dose) / % T/C (mean survival time of treated/mean survival time of control) × 100: L1210/DDP i.p., BDF1 mice, drug i.p. days 1, 5, 9; for % T/C (mean survival time of treated/mean survival time of control) × 100: at optimal dose/MTD
Description: (§7) Each of the platinum complexes was evaluated in vivo against L1210/0, L1210/DDP, L1210/DACH and M5076 cells at several dose levels. […] The data at optimal doses are reproduced in Tables 4-7 along with data for the cyclobutanedicarboxylato, aquasulfato, methylmalonato and tartronato analogs (compounds 1-4 in Table 1).
(§8) BDF1 mice inoculated i.p. with 10^5 L1210 Leukemia cells on day 0 and
drug administed i.p. on days 1, 5, and 9. MTD = Maximum Tolerated Dose
(§9) (mg/kg/injection), % T/C = (mean survival time of treated/mean survival
(§10) time of control) × 100. Figures in parenthesis indicated long term

[5] = test system: Murine Leukemia L1210/DACH; test: In vivo antitumor activity against murine leukemia L1210/DACH (Example 3, Table 6); design: species or system BDF1 mice; conditions: for MTD (Maximum Tolerated Dose) / % T/C (mean survival time of treated/mean survival time of control) × 100: L1210/DACH i.p., BDF1 mice, drug i.p. days 1, 5, 9; for % T/C (mean survival time of treated/mean survival time of control) × 100: at optimal dose/MTD
Description: as §7, §8
(§11) drug administered i.p. on days 1, 5, and 9. MTD = Maximum Tolerated Dose
as §9, §10

Murine Leukemia L1210/0 = test: In vivo antitumor activity against murine leukemia L1210/0 (Example 3, Table 5); design: species or system BDF1 mice; conditions: for % T/C (mean survival time of treated/mean survival time of control) × 100: at optimal dose/MTD
Description: as §7
BDF1 mice inoculated i.p. with 10^5 L1210 Leukemiacells on day 0 and
as §11, §9
time of control) × 100. Figures in parenthesis indicate long term

A2780 cells = test: Modified MTT cytotoxicity assay, human ovarian A2780 (Example 2, Table 3); format: cell-based; conditions: continuous exposure (5 days in table footnote; 7 days in text)
L1210/0 cells [6] = test: Modified MTT cytotoxicity assay, murine leukemia L1210/0 (Example 2, Table 3); format: cell-based; conditions: for IC50: L1210/0, MTT, continuous exposure 5 days; for effectiveness against murine versus human cells (in words): L1210/0 versus A2780
M5076 Tumor Model = test: In vivo antitumor activity against M5076 tumor model (Example 3, Table 4); design: species or system BDF1 mice; TGD (Tumor Growth Delay): unit not given beside the values; conditions: for MTD (Maximum Tolerated Dose) / TGD (Tumor Growth Delay): M5076 s.c., BDF1 mice, i.p. days 7, 14, 21, 28; for TGD (Tumor Growth Delay): at optimal dose/MTD
Description: as §7
BDF1 mice inoculated s.c. with 10' M5076 cells on day 0 and drug
administered i.p on days 7, 14, 21, and 28. MTD = Maximum Tolerated Dose
(mg/kg/injection), TGD = Tumor Growth Delay

[7] = Renal and hematological toxicity, single i.p. dose (Table 8)
[8] = L1210/0 i.p., BDF1 mice, drug i.p. days 1, 5, 9

| Structure (SMILES) | IC50 (L1210/DACH cells) | % T/C at optimal dose (L1210/DDP cells [1]) | IC50 (L1210/0 cells [2]) | % T/C at optimal dose (L1210/0 cells [3]) | Optimal Dose (L1210/0 cells [3]) | TGD (tumor growth delay) at optimal dose (M5076 reticulosarcoma) | IC50 (L1210/DDP cells [4]) | MTD (Maximum Tolerated Dose) (Murine Leukemia 1210/DDP) | % T/C (mean survival time of treated/mean survival time of control) × 100 (Murine Leukemia 1210/DDP) | antitumor activity in vivo against L1210/DACH (in words) [5] | MTD (Maximum Tolerated Dose) [5] | % T/C (mean survival time of treated/mean survival time of control) × 100 [5] | MTD (Maximum Tolerated Dose) (Murine Leukemia L1210/0; [8]) | % T/C (mean survival time of treated/mean survival time of control) × 100 (Murine Leukemia L1210/0; [8]) | IC50 (A2780 cells) | IC50 (L1210/0 cells [6]) | effectiveness against murine versus human cells (in words) (L1210/0 cells [6]) | MTD (Maximum Tolerated Dose) (M5076 Tumor Model) | TGD (Tumor Growth Delay) (M5076 Tumor Model) | further results |
| --- | --- | --- | --- | --- | --- | --- | --- | --- | --- | --- | --- | --- | --- | --- | --- | --- | --- | --- | --- | --- |
| CC(=O)[O][Pt]([Cl])([Cl])[O]C(C)=O.N[C@@H]1CCCC[C@H]1N [Compound 12, (R,R-1,2-DACH)PtCl2 trans(acetate)2] | 2300 nM | 144% | 220 nM | 276% | 25 mg/kg/inj | 18.3 days | 700 nM | – | – | – | – | – | – | – | – | – | – | – | – | – |
| N[C@@H]1CCCC[C@H]1N.O=C([O][Pt]([Cl])([Cl])[O]C(=O)C(F)(F)F)C(F)(F)F [Compound 15, (R,R-1,2-DACH)PtCl2 trans(trifluoroacetate)2] | 1720 nM | – | 100 nM | 241% | 12.5 mg/kg/inj | – | 850 nM | – | – | – | – | – | – | – | – | – | – | – | – | – |
| CC(=O)[O][Pt]([Cl])([Cl])[O]C(C)=O.N[C@H]1CCCC[C@@H]1N [Compound 13, (S,S-1,2-DACH)PtCl2 trans-(acetate)2] | 4200 nM | – | 880 nM | 265% | 25 mg/kg/inj | – | 7000 nM | – | – | – | – | – | – | – | – | – | – | – | – | – |
| N.N.[Cl][Pt][Cl] [Cis-platin, cis-diaminedichloroplatinum(II), reference compound] | 1910 nM | 110% | 200 nM | 218% | 5 mg/kg/inj | 16.0 days | 32800 nM | 5.0 mg/kg/injection | 100% | minimally sensitive to cis-platin | 5.0 mg/kg/injection | 127% | 5.0 mg/kg/injection | 218% | 360 nM | 230 nM | more effective against murine than human cells | 5.0 mg/kg/injection | 23.1 | – |
| CC(=O)[O][Pt]([Cl])([Cl])[O]C(C)=O.NC1CCCCC1N [Compound 14, (cis-1,2-DACH)PtCl2 trans(acetate)2] | 20900 nM | – | 3000 nM | 171% | 25 mg/kg/inj | – | 115000 nM | – | – | – | – | – | – | – | – | – | – | – | – | – |
| N[C@@H]1CCCC[C@H]1N.[Cl][Pt+2]([Cl])([Cl])[Cl] [Tetraplatin, reference compound] | 5300 nM | – | 110 nM | – | – | – | 440 nM | 3.1 mg/kg/injection | 143% | resistant to tetraplatin | 3.1 mg/kg/injection | 89% | 3.1 mg/kg/injection | 310% | 200 nM | 110 nM | more effective against murine than human cells | 3.1 mg/kg/injection | 11.8 | antitumor activity in vivo against L1210/DDP (in words) (Murine Leukemia 1210/DDP; L1210/DDP): active; antitumor activity in vivo against L1210/0 (in words) (Murine Leukemia L1210/0; L1210/0): active; long term survivors/no. tested (Murine Leukemia L1210/0; L1210/0 i.p., BDF1 mice, drug i.p. days 1, 5, 9, figures in parenthesis): 2/5; BUN d.5 ([7]; blood urea nitrogen, single i.p. dose (mg/kg): 1,4-DACH-Pt^II CBDCA 300, 1,4-DACH-Pt^IV Cl4 8.0, Tetraplatin 8.0, Cis-platin 12.0, Carboplatin 150, saline control 20.9): 17.2 mg %; Survivors on d.14 ([7]; single i.p. dose (mg/kg): 1,4-DACH-Pt^II CBDCA 300, 1,4-DACH-Pt^IV Cl4 8.0, Tetraplatin 8.0, Cis-platin 12.0, Carboplatin 150): 5/5; Body Wt. on d.5 ([7]; single i.p. dose (mg/kg): 1,4-DACH-Pt^II CBDCA 300, 1,4-DACH-Pt^IV Cl4 8.0, Tetraplatin 8.0, Cis-platin 12.0, Carboplatin 150, mean, S.D. less than 20%): 94 % on control; myelotoxicity / myelosuppression (in words) ([7]; single i.p. dose, leucopenia): myelosuppressive; potency relative to cis-platin (L1210/0 cells [6]; L1210/0 and A2780 tumor lines, more potent than cis-platin): 2-3 fold; antitumor properties against M5076 (in words) (M5076 Tumor Model; M5076): the least active |
